Here are results for 1 compound from patent US12291504B2 (University of Pittsburgh—Of the Commonwealth System of …, priority 2018, dated 2025).

Common to all, as to format: biochemical
Assay [1] concerns the target Dog (1D1) (Canis lupus familiaris, UniProt A0A8I3RXJ1). Kind of assay: Inhibition of SULT1A3 homologues in different species: Dog. The method, then: Compounds 12, 23 and 25 were also tested for Inhibition of SULT1A3 in different species. Inhibition of SULT1A3 Homologues in Different Species. SULT1A3 is only expressed in humans and higher primates. SULT1D1 is the isoform expressed in dogs and rodents that sulfonates neurotransmitters and is most similar to SULT1A3. Three synthesized allosteres (12, 23, and 25) were tested against both 1A3 and 1D1 from different species in order to explore testing in animal models. […] Mice have been engineered such that their SULT1A1/2 enzymes have been knocked out and replaced with the human versions of those isoforms.

Assay [2] deals with T1, SULT1E1 (Homo sapiens, UniProt P49888).
T1 sequence (P49888 1-294): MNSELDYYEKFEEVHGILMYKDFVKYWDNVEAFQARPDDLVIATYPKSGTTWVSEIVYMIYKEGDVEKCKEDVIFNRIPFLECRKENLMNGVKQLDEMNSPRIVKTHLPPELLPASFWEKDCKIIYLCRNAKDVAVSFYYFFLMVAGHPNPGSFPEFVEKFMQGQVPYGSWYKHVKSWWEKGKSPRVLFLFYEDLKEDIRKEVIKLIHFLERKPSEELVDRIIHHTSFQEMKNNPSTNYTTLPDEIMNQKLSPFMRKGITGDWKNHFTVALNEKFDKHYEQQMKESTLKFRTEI
Kind of assay: SULT1E1 inhibition test. Particulars: at 50 uM.

Assay [3] has as its target Rhesus Macaque (1A3) (Macaca mulatta, UniProt A0A5F7ZQH3). Put plainly: Inhibition of SULT1A3 homologues in different species: Rhesus Macaque. The method, then:
(§1) Compounds 12, 23 and 25 were also tested for Inhibition of SULT1A3 in different species.
(§2) Inhibition of SULT1A3 Homologues in Different Species. SULT1A3 is only expressed in humans and higher primates. SULT1D1 is the isoform expressed in dogs and rodents that sulfonates neurotransmitters and is most similar to SULT1A3. Three synthesized allosteres (12, 23, and 25) were tested against both 1A3 and 1D1 from different species in order to explore testing in animal models. […] Mice have been engineered such that their SULT1A1/2 enzymes have been knocked out and replaced with the human versions of those isoforms.

For assay [4], the target named is T2, Rat (1D1) (Rattus norvegicus, UniProt G3V9R3).
T2 sequence (G3V9R3 1-295): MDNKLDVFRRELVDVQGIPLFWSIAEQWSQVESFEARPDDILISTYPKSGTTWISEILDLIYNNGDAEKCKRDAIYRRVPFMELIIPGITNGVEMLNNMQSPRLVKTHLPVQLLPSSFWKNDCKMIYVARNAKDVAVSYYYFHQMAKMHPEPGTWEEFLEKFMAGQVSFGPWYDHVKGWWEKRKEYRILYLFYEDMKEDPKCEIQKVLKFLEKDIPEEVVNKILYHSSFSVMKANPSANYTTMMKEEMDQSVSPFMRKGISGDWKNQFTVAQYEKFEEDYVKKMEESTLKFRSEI
Put plainly: Inhibition of SULT1A3 homologues in different species: Rat. The method, then: as §1, §2

The target of assay [5] is Green Monkey (1A3) (Chlorocebus sabaeus, UniProt Z9LO20H8W3). Kind of assay: Inhibition of SULT1A3 homologues in different species: Green Monkey. As for the experimental part:
as §1, §2

The target in assay [6] is T3, SULT2A1 (Homo sapiens, UniProt Q06520).
T3 sequence (Q06520 1-285): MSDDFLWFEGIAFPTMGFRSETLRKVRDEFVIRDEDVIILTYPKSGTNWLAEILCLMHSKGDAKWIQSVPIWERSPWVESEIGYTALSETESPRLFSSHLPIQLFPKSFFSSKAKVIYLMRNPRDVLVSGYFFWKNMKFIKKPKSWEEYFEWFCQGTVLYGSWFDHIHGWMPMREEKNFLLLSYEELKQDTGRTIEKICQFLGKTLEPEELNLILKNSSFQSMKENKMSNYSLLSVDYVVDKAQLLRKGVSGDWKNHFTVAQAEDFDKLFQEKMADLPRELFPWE
Kind of assay: SULT2A1 inhibition test. As to conditions: at 50 uM.

Assay [7] has as its target Mouse (1D1) (Mus musculus, UniProt Q3UZZ6). Put plainly: Inhibition of SULT1A3 homologues in different species: Mouse. The method, then:
as §1, §2

For assay [8], the target named is SULT1A1 (Homo sapiens, UniProt P50225). Kind of assay: SULT1A1 inhibition, 1-HP initial-rate assay. Particulars: ND = inhibition was not detected at 30 μM compound, parentheses one standard error. The method, then: (§3) Inhibition studies. Inhibition parameters were determined under conditions identical to those described above (see, Initial-Rate Studies) except that [1-HP] was increased to 5.0 μM (˜61×Km) and inhibitor concentration was varied between 0.20-20×Ki. Ki was obtained using a least-squares fit to the following partial inhibition equation (25,28): v=kcat·(Ki+(1/kcat inh)·[I])/(Ki+[I]), where kcat inh is enzyme turnover at saturating substrates and allosteric inhibitor.
SULT1A1, sequence (P50225 whole entry): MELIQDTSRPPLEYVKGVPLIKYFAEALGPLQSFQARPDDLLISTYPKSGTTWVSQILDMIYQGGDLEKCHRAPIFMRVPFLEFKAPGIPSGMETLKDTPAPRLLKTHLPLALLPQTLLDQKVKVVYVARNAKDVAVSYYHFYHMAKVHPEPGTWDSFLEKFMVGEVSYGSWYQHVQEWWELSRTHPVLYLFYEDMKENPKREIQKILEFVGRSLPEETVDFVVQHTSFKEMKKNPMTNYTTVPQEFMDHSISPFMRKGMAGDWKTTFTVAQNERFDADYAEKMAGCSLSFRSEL
(§4) Inhibition studies. Inhibition parameters were determined under conditions identical to those described above (see, Initial-Rate Studies) except that [1-HP] was increased to 5.0 μM (˜61×Km) and inhibitor concentration was varied between 0.20-20×Ki. Ki was obtained using a least-squares fit to the following partial inhibition equation (47,50): V/Vax=(Ki+α·[I])/(Ki+[I]), where α is percentage of enzyme turnover remaining at saturating substrates and allosteric inhibitor.

Assay [9] has as its target SULT1A3 (Homo sapiens, UniProt P0DMM9). Kind of assay: SULT1A3 inhibition studies, 1-HP initial-rate fluorescence assay. Also on record: Wild-type and mutant SULT1A3 coding regions were inserted into a pGEX-6P expression vector; N-His/GST/MBP triple-tag (N, cleaved yes); made in house; host or cells: E. coli BL21(DE3); inhibition: dose or concentration left out as unconfirmed. The method, then:
The initial rates of SULT catalyzed 1-HP sulfonation are plotted as a function of inhibitor concentration, and are normalized relative to [inhibitor]=0. Enzyme activity was monitored by the sulfonation dependent change in 1-HP fluorescence (λex=325 nm, λem=370 nm). Less than 5% of the concentration-limiting substrate converted at the reaction endpoint was consumed during initial-rate measurements. Each point is the average of three independent determinations. Conditions: SULT (20 nM, active sites), PAPS (0.50 mM, 17×Km), 1-HP (5.0 μM, 61×Km), KPO4 (50 mM), pH 7.5, 25±2° C.
(§5) Initial-Rate Studies. Initial-rate parameters for the labeled or mutant SULT1A3 constructs were determined using a previously described 1-HP assay (25). Briefly, reactions were initiated by addition of PAPS (0.50 mM, 17×Km) to a solution containing enzyme (20 nM, active sites), 1-HP (2.0 μM, ˜24×Km), and KPO4 (50 mM), pH 7.5, 25±2° C. Reactions were monitored via fluorescence change associated with the conversion of 1-HP to 1-HP-S (λex=325 nm, λem=370 nm). Keq for the 1-HP sulfonation reaction is −250. Given the reaction conditions outlined above, ≥99% of 1-HP is converted to 1-HP-S, and ˜0.4% of PAPS is converted to PAP at equilibrium. […] Reaction progress curves were analyzed to obtain initial-rate parameters as described previously (26,27).
as §3
as §5, with “(47).” for “(25).”, “˜250.” for “−250.”, “(48,49).” for “(26,27).”
as §4

Where two headings read alike, the source gives them in different places.

SULT1A3, sequence (P0DMM9 whole entry): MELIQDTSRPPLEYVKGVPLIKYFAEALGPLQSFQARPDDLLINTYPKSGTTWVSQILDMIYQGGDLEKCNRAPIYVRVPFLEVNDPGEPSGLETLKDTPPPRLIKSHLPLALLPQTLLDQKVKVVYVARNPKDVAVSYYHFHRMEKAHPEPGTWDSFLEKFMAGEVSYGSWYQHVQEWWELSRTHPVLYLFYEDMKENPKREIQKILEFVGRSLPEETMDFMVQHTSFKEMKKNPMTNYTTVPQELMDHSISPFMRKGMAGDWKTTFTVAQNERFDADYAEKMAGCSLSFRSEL
Rhesus Macaque (1A3), sequence (A0A5F7ZQH3 1-295): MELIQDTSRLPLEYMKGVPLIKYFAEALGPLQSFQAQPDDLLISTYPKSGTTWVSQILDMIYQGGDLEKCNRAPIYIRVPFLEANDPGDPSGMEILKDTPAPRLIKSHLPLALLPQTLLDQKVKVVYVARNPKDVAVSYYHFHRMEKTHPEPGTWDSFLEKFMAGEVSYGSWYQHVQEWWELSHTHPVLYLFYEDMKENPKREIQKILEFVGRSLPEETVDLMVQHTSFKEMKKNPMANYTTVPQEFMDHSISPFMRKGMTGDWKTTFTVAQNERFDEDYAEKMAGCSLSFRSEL
Mouse (1D1), sequence (Q3UZZ6 whole entry): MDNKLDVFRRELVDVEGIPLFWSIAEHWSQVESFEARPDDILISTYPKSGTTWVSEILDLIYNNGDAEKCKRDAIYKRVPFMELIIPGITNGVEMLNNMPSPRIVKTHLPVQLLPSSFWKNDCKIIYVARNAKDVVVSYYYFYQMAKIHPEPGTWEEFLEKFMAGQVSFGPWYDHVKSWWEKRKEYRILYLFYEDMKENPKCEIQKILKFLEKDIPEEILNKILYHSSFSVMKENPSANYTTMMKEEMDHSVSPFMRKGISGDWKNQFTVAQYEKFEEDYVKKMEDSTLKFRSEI
Dog (1D1), sequence (A0A8I3RXJ1 entry or part of it): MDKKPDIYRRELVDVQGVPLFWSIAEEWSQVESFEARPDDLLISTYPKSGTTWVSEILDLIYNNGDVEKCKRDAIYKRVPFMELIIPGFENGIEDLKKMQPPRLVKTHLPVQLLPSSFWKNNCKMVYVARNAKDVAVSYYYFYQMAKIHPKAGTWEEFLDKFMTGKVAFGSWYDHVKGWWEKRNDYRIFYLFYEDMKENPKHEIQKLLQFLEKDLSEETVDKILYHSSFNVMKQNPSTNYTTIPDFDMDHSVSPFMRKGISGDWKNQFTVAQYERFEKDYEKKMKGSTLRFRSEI
Green Monkey (1A3), sequence (Z9LO20H8W3 1-295): as the sequence (A0A5F7ZQH3 1-295) above, with T7A, M15V, Y23C, K230R, F247Y, E278A counted along it

`CC(C)Cc1ccc2cc(/C=C/C(N)=O)cnc2n1` [Compound 23, (E)-3-(7-Isobutylnaphthyridin-3-yl)acrylamide]: the “Dog (1D1) % inh” value in assay [1] is reported as 81 (4) %. In addition, the Ki worked out at 117 nM in [1] (standard error in neighbouring cell); 12 nM in assay [3] (parentheses one standard error); 270 nM in assay [4] (parentheses one standard error); 72 nM in assay [5] (parentheses one standard error); 65 nM in assay [7] (parentheses one standard error); 3.1 µM in [8]. The Ki in [9] (ND = inhibition was not detected at 30 μM compound, parentheses one standard error, read-out: SULT1A3 Ki/μM) is 0.0092 µM; in [9] (standard error in neighbouring cell, read-out: Human (1A3) Ki), 0.0096 µM. Also, in assay [2], the “inhibition of SULT1E1” value was “no inhibition was detected”. Also, the “Rhesus Macaque (1A3) % inh” value in [3] is recorded as 97 (2) %. Further, in assay [4], the “Rat (1D1) % inh” value is recorded as 37 (4) %. For the same compound, the “Green Monkey (1A3) % inh” value in assay [5] is 91 (4) %. Also, in assay [6], the “inhibition of SULT2A1” value is reported as “no inhibition was detected”. In addition, the “Mouse (1D1) % inh” value in assay [7] is given as 92 (3) %. The inhibition in [8] (read-out: SULT1A1 Enzyme Inhibition at Saturation/%) is 61%; in assay [9] (parentheses one standard error, read-out: SULT1A3 Enzyme Inhibition at Saturation/%) it was 96%. Further, the “affinity for SULT1A3 (in words)” value in [9] was “low nanomolar affinity”. Further, the “Human (1A3) % inh” value in [9] (parentheses one standard error) is recorded as 97 (2) %. In addition, the inhibition at saturation result in [9] (text b218) is listed as “almost complete inhibition”.
